The text below walks through data of patent publication US8624037B2, “Imidazolidine-2,4-dione derivatives and use thereof as a medicament” (Ipsen Pharma S.A.S., priority 2009, dated 2014).

One test deals with T1, androgen receptor (Homo sapiens, UniProt P10275, T878A).
T1 construct: primary antibody directed against the androgen receptor (AR441, sc-7305, Santa Cruz); host or cells: LNCaP
It is filed as cell-based. Particulars: LNCaP cells, 72 hours after treatment, western blot, FIGS. 2 to 10. As for the experimental part: The cells of the LNCaP line are seeded at a rate of 2.5 millions of cells per 10 cm Petri dish in RPMI, 10% of foetal calf serum, 2 mM of glutamine, 100 U/ml of penicillin, 0.1 mg/ml of streptomycin and 0.01M HEPES, 1 mM of sodium pyruvate, […]. 4 days later, the cells are treated with the compound to be tested. 72 hours after the treatment the cells are lyzed in lysis buffer (50 mM Tris pH 7.4, 150 mM NaCl, 1 mM EDTA, 20 mM NaF, 100 mM Na2VO3, 0.5% of NP40, 1% of Triton X-100, 1 mM EGTA, Pefabloc, protease inhibitor cocktail 11836170001 RocheDiagnostics, Phosphatase inhibitor cocktail set II Calbiochem). The cells are then scrapped and the lysate transferred into QIAshredder tubes (cat No. 79656 Qiagen) for centrifugation at 13,000 rpm for 15 min at 4° C. The supernatant is transferred into QIAshredder tubes for a second centrifugation at 13,000 rpm for 5 min in order to completely eliminate the DNA filaments. The protein concentration is then determined (Bio-Rad DC protein assay kit) and adjusted so as to load the same quantity of proteins per well (10 and 20 per well depending on the experiments). The loading buffer (sample loading buffer 3×ref 7722 Cell signaling technology) with added 1% beta-mercaptoethanol and 50 mM DTT, is added to the samples which are then heated for 10 min at 90° C. The samples are deposited under a volume of 20 μl on NuPAGE 4-12% Bis-Tris gels (cat No. NP0322BOX, Invitrogen). The migration takes place in MOPS buffer (Invitrogen) and is carried out for 1 hour at 180V. The proteins are transferred onto a nitrocellulose membrane (Hybond ECL RPN78D, GE Healthcare) under semi-dry conditions, in the presence of transfer buffer (NP0006-1, Invitrogen) over 45 min at 15V. The membrane is then blocked for 1 hour in blocking buffer (Non-fat dry milk, cat 170-6404, Biorad) at 5% in Tris Buffer saline (TBS) 0.1% Tween 20. Then it is incubated at 4° C. overnight in the presence of primary antibody directed against the androgen receptor (AR441, sc-7305, Santa Cruz) diluted to 1/2000th in blocking buffer as well as in the presence of primary antibody directed against GAPDH (Cat.MAB374, Millipore) diluted to 1/20,000th in blocking buffer (monitoring of protein load). The membrane is then washed 3 times in washing buffer (TBS, 0.1% Tween 20). The membrane is then incubated in the presence of secondary anti-immunoglobulin mouse antibody coupled with HRP (Goat anti-mouse IgG-HRP, sc 2031, Santa Cruz) diluted to 1/5000th in blocking buffer. The membrane is then washed 3 times in washing buffer.
In general terms: Immunoblotting shows a protein as a band on a membrane.

For test [1], the system named is LNCaP cells. As to the kind of experiment: Pro- and/or anti-proliferative activity on LNCaP in medium depleted in steroids (WST-1). To be noted: FIG. 1. It is filed as cell-based. As for the experimental part:
2. Antiproliferative Activity on LNCaP in a Medium Depleted in Steroids:
The pro- and/or anti-proliferative activity of the compounds of the present invention is determined on LNCaP in medium depleted in steroids.
The LNCaP (ATCC, 1740) line originates from a carcinoma of the prostate expressing the androgen receptor, it is hormone-dependent.
The maintenance of the LNCaP line is carried out under the usual conditions in RPMI, 10% of foetal calf serum, 2 mM of glutamine, 100 U/ml of penicillin, 0.1 mg/ml of streptomycin and 0.01M HEPES, 1 mM sodium pyruvate, 40% of D-glucose.
For the study under conditions without steroids, 24 hours before the seeding the culture medium of the cells is eliminated. […]
The LNCaP line is seeded at 20,000 cells/well in 90 μl of RPMI medium with 10% foetal calf serum depleted in steroids in 96-well plates coated with poly-D-lysine (Biocoat, Costar). • Treatment of the cells: 24 h after seeding, the cells are treated with 10 μl/well of compound diluted in the culture medium. […] The cells are incubated for 144 h at 37° C., 5% CO2. • Reading: After incubation for 6 days, 10 μL of cell proliferation reagent WST-1 (Roche ref 1644807) is added to each well. […]
A general note: Tetrazolium dyes change colour on reduction, which living cells bring about.

The subject of test [2] is LNCaP cells. As to the kind of experiment: Anti-proliferative activity on LNCaP in complete medium (WST-1). Particulars: Homo sapiens, 144 h, 144 h incubation, WST-1 reading, read-out: IC50 on the LNCaP cells in culture (concentration inhibiting the cell proliferation by 50%). It is filed as cell-based. As for the experimental part: 1. Anti-Proliferative Activity on LNCaP in Complete Medium
The anti-proliferative activity of the compounds of the present invention is determined on LNCaP in complete medium by applying the following experimental procedure:
The LNCaP cell type (ATCC, 1740) originates from a prostate carcinoma expressing the androgen receptor, this line is hormone-dependent.
Maintenance of the LNCaP line is carried out in complete culture medium: RPMI, 10% of foetal calf serum, 2 mM glutamine, 100 U/ml penicillin, 0.1 mg/ml of streptomycin and 0.01M HEPES, 1 mM sodium pyruvate, 40% of D-glucose. • Seeding the plates:
The LNCaP line is seeded at 20,000 cells/well in […] of complete medium in 96-well plates coated with poly-D-lysine (Biocoat, Costar). • Treatment of the cells: 24 h after the seeding, the cells are treated with 10 μl/well of compound diluted in the culture medium. The concentrations used are the following: 1 nM/10/30/100/300/1000/3000/10,000/100,000 nM. The cells are incubated for 144 h at 37° C., 5% CO2. • Reading: After incubation for 6 days, 10 μL of the “WST-1 cell proliferation” reagent (Roche ref 1644807) is added to each well. After incubation for 2 hours at 37° C., 5% CO2, the absorbance at 450 nm is measured by spectrophotometry (Envision, Perkin Elmer). • Results: The experiments are carried out in duplicate and the best compounds are tested twice. A concentration value inhibiting the cell proliferation by 50% (IC50) is calculated.

In test [3] the test system is LNCaP cells. To be noted: medium depleted in steroids; stated 'as described previously' (Veldscholte 1992); cited from earlier work.

Molecules are shown by their SMILES.

T1 sequence (P10275 whole entry T878A): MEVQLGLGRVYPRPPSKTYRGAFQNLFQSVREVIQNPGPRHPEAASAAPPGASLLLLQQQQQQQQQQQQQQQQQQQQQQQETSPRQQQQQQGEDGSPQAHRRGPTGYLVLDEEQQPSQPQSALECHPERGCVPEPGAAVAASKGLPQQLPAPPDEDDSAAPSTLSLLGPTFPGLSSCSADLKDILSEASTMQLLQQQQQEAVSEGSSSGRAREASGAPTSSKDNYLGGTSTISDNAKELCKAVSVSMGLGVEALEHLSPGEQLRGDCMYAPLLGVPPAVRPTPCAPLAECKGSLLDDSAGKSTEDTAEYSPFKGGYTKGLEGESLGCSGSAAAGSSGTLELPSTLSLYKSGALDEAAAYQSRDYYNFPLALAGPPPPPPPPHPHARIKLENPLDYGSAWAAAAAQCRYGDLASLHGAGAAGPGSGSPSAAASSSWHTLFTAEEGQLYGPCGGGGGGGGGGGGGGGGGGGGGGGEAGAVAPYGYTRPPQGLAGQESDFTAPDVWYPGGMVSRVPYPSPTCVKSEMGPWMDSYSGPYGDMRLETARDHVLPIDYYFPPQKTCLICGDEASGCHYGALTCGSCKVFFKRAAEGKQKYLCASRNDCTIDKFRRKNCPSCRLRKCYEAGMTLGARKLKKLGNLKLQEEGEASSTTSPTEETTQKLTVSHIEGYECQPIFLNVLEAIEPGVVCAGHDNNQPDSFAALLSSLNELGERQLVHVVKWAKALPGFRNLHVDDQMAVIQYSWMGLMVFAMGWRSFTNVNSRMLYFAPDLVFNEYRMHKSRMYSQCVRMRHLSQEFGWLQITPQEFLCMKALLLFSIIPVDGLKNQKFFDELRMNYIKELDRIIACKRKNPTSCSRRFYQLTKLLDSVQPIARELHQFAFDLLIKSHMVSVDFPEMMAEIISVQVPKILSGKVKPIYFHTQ

As to `CC1(C)C(=O)N(c2ccc([N+](=O)[O-])c(C(F)(F)F)c2)C(=O)N1CCCCCN1C(=O)N(c2ccc([N+](=O)[O-])c(C(F)(F)F)c2)C(=O)C1(C)C` [Example 2, 1,1′-pentane-1,5-diylbis{5,5-dimethyl-3-[4-nitro-3-(trifluoromethyl)phenyl]imidazolidine-2,4-dione}], the “effect on protein expression of the androgen receptor” value (“effect on protein expression” below) on androgen receptor is recorded as “reduce protein expression of the androgen receptor”. Moreover, in the test with LNCaP cells [1], the “inhibitory activity on cell proliferation of LNCaP cultured in medium depleted in steroids” value is on record as “visible inhibitory activity at low concentrations”.

In the case of `CC1(C)C(=O)N(c2ccc([N+](=O)[O-])c(C(F)(F)F)c2)C(=O)N1CCCCCCCN1C(=O)N(c2ccc([N+](=O)[O-])c(C(F)(F)F)c2)C(=O)C1(C)C` [Example 4, 1,1′-heptane-1,7-diylbis{5,5-dimethyl-3-[4-nitro-3-(trifluoromethyl)phenyl]imidazolidine-2,4-dione}], the IC50 in the test with LNCaP cells [2] is less than 1500 nM.

With `CC1(C)C(=O)N(c2ccc([N+](=O)[O-])c(C(F)(F)F)c2)C(=O)N1CCOCCN1C(=O)N(c2ccc([N+](=O)[O-])c(C(F)(F)F)c2)C(=O)C1(C)C` [Example 7, 1,1′-(oxydiethane-2,1-diyl)bis{5,5-dimethyl-3-[4-nitro-3-(trifluoromethyl)-phenyl]imidazolidine-2,4-dione}], at androgen receptor, the “effect on protein expression” value is recorded as “reduce protein expression of the androgen receptor”.

Turning to `Cc1cc(N2C(=O)N(CCCCCN3C(=O)N(c4ccc([N+](=O)[O-])c(C)c4)C(=O)C3(C)C)C(C)(C)C2=O)ccc1[N+](=O)[O-]` [Example 10, 1,1′-pentane-1,5-diylbis[5,5-dimethyl-3-(3-methyl-4-nitrophenyl)imidazolidine-2,4-dione]], the IC50 in the test on LNCaP cells [2] was less than 1500 nM. In addition, on androgen receptor, the “effect on protein expression” value was “reduce protein expression of the androgen receptor”.

As to `COc1cc(N2C(=O)N(CCCCCN3C(=O)N(c4ccc([N+](=O)[O-])c(OC)c4)C(=O)C3(C)C)C(C)(C)C2=O)ccc1[N+](=O)[O-]` [Example 13, 1,1′-pentane-1,5-diylbis[3-(3-methoxy-4-nitrophenyl)-5,5-dimethyl-imidazolidine-2,4-dione]], in the test on LNCaP cells [2], the IC50 is less than 1500 nM.

With `COC(=O)Nc1ccc(N2C(=O)N(CCCCCN3C(=O)N(c4ccc(NC(=O)OC)c(C)c4)C(=O)C3(C)C)C(C)(C)C2=O)cc1C` [Example 14, dimethyl{pentane-1,5-diylbis[(4,4-dimethyl-2,5-dioxoimidazolidine-3,1-diyl)(2-methyl-4,1-phenylene)]}biscarbamate], the IC50 with LNCaP cells [2] is less than 1500 nM.

Regarding `Cc1cc(N2C(=O)N(CCCCCN3C(=O)N(c4ccc(C#N)c(C)c4)C(=O)C3(C)C)C(C)(C)C2=O)ccc1C#N` [Example 15, 4,4′-[pentane-1,5-diylbis(4,4-dimethyl-2,5-dioxoimidazolidine-3,1-diyl)]bis(2-methylbenzonitrile)], the “effect on protein expression” value at androgen receptor was “reduce protein expression of the androgen receptor”.

As to `CC1(C)C(=O)N(c2ccc(C#N)c(Cl)c2)C(=O)N1CCCCCN1C(=O)N(c2ccc(C#N)c(Cl)c2)C(=O)C1(C)C` [Example 16, 4,4′-[pentane-1,5-diylbis(4,4-dimethyl-2,5-dioxoimidazolidine-3,1-diyl)]bis(2-chlorobenzonitrile)], in the test on LNCaP cells [2], the IC50 was less than 1500 nM. In addition, the “effect on protein expression” value on androgen receptor is listed as “reduce protein expression of the androgen receptor”.

Regarding `CC1(C)C(=O)N(c2ccc([N+](=O)[O-])c(C(F)(F)F)c2)C(=O)N1C/C=C\CN1C(=O)N(c2ccc([N+](=O)[O-])c(C(F)(F)F)c2)C(=O)C1(C)C` [Example 19, 1,1′-(2Z)-but-2-ene-1,4-diylbis{5,5-dimethyl-3-[4-nitro-3-(trifluoromethyl)phenyl]imidazolidine-2,4-dione}], the “effect on protein expression” value on androgen receptor is “reduce protein expression of the androgen receptor”. The “inhibitory activity on cell proliferation of LNCaP cultured in medium depleted in steroids” value with LNCaP cells [1] is listed as “visible inhibitory activity at low concentrations”.

`CC1(C)C(=O)N(c2ccc(C#N)c(C(F)(F)F)c2)C(=O)N1C/C=C\CN1C(=O)N(c2ccc(C#N)c(C(F)(F)F)c2)C(=O)C1(C)C` [Example 21, 4,4′-[(2Z)-but-2-ene-1,4-diylbis(4,4-dimethyl-2,5-dioxoimidazolidine-3,1-diyl)]bis[2-(trifluoromethyl)benzonitrile]]: the “effect on protein expression” value on androgen receptor is given as “reduce protein expression of the androgen receptor”.

For `CC1(C)C(=O)N(c2ccc(C#N)c(C(F)(F)F)c2)C(=O)N1C[C@@H]1O[C@@H]1CN1C(=O)N(c2ccc(C#N)c(C(F)(F)F)c2)C(=O)C1(C)C` [Example 22, 4,4′-{(2R,3S)-oxirane-2,3-diylbis[methanediyl(4,4-dimethyl-2,5-dioxoimidazolidine-3,1-diyl)]}bis[2-(trifluoromethyl)benzonitrile]], the “effect on protein expression” value at androgen receptor is “reduce protein expression of the androgen receptor”.

With `CC1(C)NC(=O)N(c2ccc([N+](=O)[O-])c(C(F)(F)F)c2)C1=O` [nilutamide], the “agonist / inhibitory activity of nilutamide on LNCaP proliferation” value in the test with LNCaP cells [3] is listed as “agonist activity at low concentrations, then an inhibitory activity at high concentrations”.
